Reference: patent publication US12623942B2, “Method for extracting salts and temperature- regenerated extracting composition” (ADIONICS, priority 2016, dated 2026)

Legend:
[1] = Complexing constant Log K in methanol at 25° C.; assay type: binding
Experimental: K is the complexing constant of a CEM and a […] cation in methanol, at 25° C., which is measured according to the standard method of isothermal calorimetric titration.

[2] = Extraction isotherms of CaCl2 at room temperature and 80° C.; details: 0.1M CEM2 + 1M ASM9 in 12ClPh, Org./Water = 1
Experimental: Concerning the extraction or back extraction assays at a higher temperature, in particular at 60° C. or at 80° C., a magnetic stirring (at 500 revolutions per minute), for 2 hours, is carried out with an indirect thermostatically-controlled heating in a metal mold on a hotplate.
This series of examples aims to establish two extraction isotherms of CaCl2 at 20° C. and at 80° C. for an extracting composition including 0.1 Mol/L of CEM2, combined with 1 Mol/L of ASM9; the whole dissolved in 1,2-dichlorobenzene.
After carrying out the 7 specific extractions (duplicated) of salts, the amounts of extracted cations in relative molar percentage before and after extraction at room temperature and at water/extracting formulation iso-volume are indicated in table IV: […]
The same series of extractions was then carried out at 80° C. to give table V as follows: […]

[3] = Selective extraction from a mixture of NaCl, CaCl2, SrCl2 and BaCl2; details: 0.1 Mol/L CEM2 in ASM2/ASM1 60/40 by volume, RT
Experimental: A brine containing a mixture of NaCl, CaCl2, SrCl2 and BaCl2 is made as described above. The dissolved salt concentrations are indicated in table VIII in mMol/L. The extraction was carried out a second time with changed divalent salt concentrations.
The extracting composition consists of 0.1 Mol/L of CEM2 and of a mixture of two ASMs. This mixture is composed of ASM2 which is usually referred to as [3,5-Bis(Trifluoromethyl)benzyl Alcohol] (35TFMBnOH) of CAS #: 32707-89-4, up to 60% by volume, and of ASM1, referred to as [3-(Trifluoromethyl)benzyl Alcohol](3TFMBnOH), of molecular formula C8H7F3O of MW=176.14 g/Mol and of CAS #: 349-75-7, up to 40% by volume, both serving as a fluidizing agent and as an ASM given its liquid form.
The extraction is carried out as described in example 1 and at room temperature.

CCN(CC)C(=O)COc1c2cc(C(C)(C)C)cc1Cc1cc(C(C)(C)C)cc(c1OCC(=O)N(CC)CC)Cc1cc(C(C)(C)C)cc(c1OCC(=O)N(CC)CC)Cc1cc(C(C)(C)C)cc(c1OCC(=O)N(CC)CC)Cc1cc(C(C)(C)C)cc(c1OCC(=O)N(CC)CC)Cc1cc(C(C)(C)C)cc(c1OCC(=O)N(CC)CC)C2 [CEM2, 4-tert-butyl-Calix[6]arene hexakis(N,N-diethylacetamide)]
Log K(Cs^+, MeOH, 25° C.) [1]: 2.8
Log K(K^+, MeOH, 25° C.) [1]: 3.3
Log K(Li^+, MeOH, 25° C.) [1]: 2.6
Log K(Na^+, MeOH, 25° C.) [1]: 2.8
Log K(Rb^+, MeOH, 25° C.) [1]: 2.6
Extraction rate at 80° C., CaCl2 ([2]; 0.01M): 11%
Extraction rate at 80° C., CaCl2 ([2]; 0.02M): 16%
Extraction rate at 80° C., CaCl2 ([2]; 0.03M): 18%
Extraction rate at 80° C., CaCl2 ([2]; 0.04M): 17%
Extraction rate at 80° C., CaCl2 ([2]; 0.1M): 18%
Extraction rate at 80° C., CaCl2 ([2]; 0.2M): 16%
Extraction rate at 80° C., CaCl2 ([2]; 0.4M): 10%
Extraction rate at room temperature (RT), CaCl2 ([2]; 0.01M): 39%
Extraction rate at room temperature (RT), CaCl2 ([2]; 0.02M): 42%
Extraction rate at room temperature (RT), CaCl2 ([2]; 0.03M): 41%
Extraction rate at room temperature (RT), CaCl2 ([2]; 0.04M): 40%
Extraction rate at room temperature (RT), CaCl2 ([2]; 0.1M): 34%
Extraction rate at room temperature (RT), CaCl2 ([2]; 0.2M): 27%
Extraction rate at room temperature (RT), CaCl2 ([2]; 0.4M): 16%
Final Concentration Sr^2+ ([3]; Table IX, initial 9.17): 0 mmol/L
% extraction Sr^2+ ([3]; Table IX, initial 9.17 mMol/L): 100%
Final Concentration Ca^2+ ([3]; Table IX, initial 9.25): 0 mmol/L
% extraction Ca^2+ ([3]; Table IX, initial 9.25 mMol/L): 100%
Final Concentration Ba^2+ ([3]; Table IX, initial 9.32): 0 mmol/L
% extraction Ba^2+ ([3]; Table IX, initial 9.32 mMol/L): 100%
Final Concentration Na^+ ([3]; Table IX, initial 196.04): 195.9835 mmol/L
% extraction Na^+ ([3]; Table IX, initial 196.04 mMol/L): 0%
ANIONS Cl− Final Concentration ([3]; Table IX, initial 245.4): 203.16 mmol/L
Final Concentration Sr^2+ ([3]; Table VIII, initial 4.29): 0 mmol/L
% extraction Sr^2+ ([3]; Table VIII, initial 4.29 mMol/L): 100%
Final Concentration Ba^2+ ([3]; Table VIII, initial 4.69): 0 mmol/L
% extraction Ba^2+ ([3]; Table VIII, initial 4.69 mMol/L): 100%
Final Concentration Ca^2+ ([3]; Table VIII, initial 29.13): 0.4916 mmol/L
% extraction Ca^2+ ([3]; Table VIII, initial 29.13 mMol/L): 98%
Final Concentration Na^+ ([3]; Table VIII, initial 193.52): 199.4775 mmol/L
% extraction Na^+ ([3]; Table VIII, initial 193.52 mMol/L): 0%
ANIONS Cl− Final Concentration ([3]; Table VIII, initial 257.74): 213.38 mmol/L
